Reference: patent US20250230193A1, “CYCLIC COMPOUND HAVING SELECTIVE KRAS INHIBITORY EFFECT ON HRAS AND NRAS” (CHUGAI SEIYAKU KABUSHIKI KAISHA, priority 2022, published 2025)
Where a SMILES comes first, the peptide text is derived from it. Bridges are numbered along the chain shown (N, C = ends). [ ]: non-standard residue; d: D form. The star is where a group is joined. hPhe(3-Cl-4-CF3) = N[C@@H](CCc1ccc(C(F)(F)F)c(Cl)c1)C(=O)O; NPrPhe(4-CF3) = CCCN[C@@H](Cc1ccc(C(F)(F)F)cc1)C(=O)O; NMeGly(cPent) = CN[C@H](C(=O)O)C1CCCC1; NMeD = CN[C@@H](CC(=O)O)C(=O)O; hPip = O=C(O)[C@@H]1CCCCCN1; Morpholide = C1CN(*)CCO1; Ac5c = NC1(C(=O)O)CCCC1; NEtG = CCNCC(=O)O; Sar = CNCC(=O)O

Legend:
[1] = biological target: GDP-bound NRAS wild-type protein (Homo sapiens, UniProt P01111); assay: Binding to NRAS by surface plasmon resonance (SPR), Single Cycle Kinetics; conditions: SPR; for NRAS/KRAS (ratio of KD value for NRAS to KD value for KRAS): GDP-bound NRAS wild-type vs GDP-bound KRAS wild-type
GDP-bound NRAS wild-type protein, sequence (P01111 whole entry): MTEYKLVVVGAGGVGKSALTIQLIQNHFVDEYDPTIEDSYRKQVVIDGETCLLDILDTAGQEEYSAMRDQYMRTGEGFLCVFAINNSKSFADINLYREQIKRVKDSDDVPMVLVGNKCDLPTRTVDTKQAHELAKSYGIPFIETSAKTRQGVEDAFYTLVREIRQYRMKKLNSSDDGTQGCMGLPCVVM

[2] = biological target: GDP-bound HRAS wild-type protein (Homo sapiens, UniProt P01112); assay: Binding to HRAS by surface plasmon resonance (SPR), Single Cycle Kinetics; conditions: SPR; for HRAS/KRAS (ratio of KD value for HRAS to KD value for KRAS): GDP-bound HRAS wild-type vs GDP-bound KRAS wild-type
GDP-bound HRAS wild-type protein, sequence (P01112 whole entry): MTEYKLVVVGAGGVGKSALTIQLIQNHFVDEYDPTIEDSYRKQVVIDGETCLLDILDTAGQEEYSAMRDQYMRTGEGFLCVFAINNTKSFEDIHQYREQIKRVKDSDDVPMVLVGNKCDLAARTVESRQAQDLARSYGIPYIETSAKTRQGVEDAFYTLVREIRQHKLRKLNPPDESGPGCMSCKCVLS

Question: Which results are given for CC[C@H](C)[C@@H]1NC(=O)[C@H](CC(C)C)N(C)C(=O)C[C@@H](C(=O)N(C)C)N(C)C(=O)[C@H](C2CCCC2)N(C)C(=O)C2(CCC2)NC(=O)[C@@H]2[C@@H](OCC(F)F)CCN2C(=O)[C@H](CCc2cc(F)c(C(F)(F)F)c(F)c2)NC(=O)CN(C)C(=O)[C@H](Cc2ccc(C(F)(F)F)cc2)N2CC/C=C\C[C@@H](C2=O)N(C)C(=O)CN(C)C1=O [PP1534]?
Answer: NRAS/KRAS (ratio of KD value for GDP-bound NRAS wild-type protein to KD value for KRAS) ([1]; KD ratio class): AA (a compound having 20 or more is denoted as AA); HRAS/KRAS (ratio of KD value for GDP-bound HRAS wild-type protein to KD value for KRAS) ([2]; KD ratio class): A (a compound having 10 or more and less than 20 is denoted as A)

Question: What does the source list for CCCN(C)C(=O)[C@@H]1CC(=O)N(C)[C@@H](CC(F)F)C(=O)N[C@@H]([C@@H](C)CC)C(=O)N(C)CC(=O)N(C)[C@H]2C/C=C\CCN(C2=O)[C@@H](Cc2ccc(C(F)(F)F)cc2)C(=O)N(C)CC(=O)N[C@@H](CCc2ccc(C(F)(F)F)c(OC)c2)C(=O)N2C[C@H](OCC)C[C@H]2C(=O)NC2(CC(C)(C)C2)C(=O)N(C)[C@@H](C2CCCC2)C(=O)N1C [PP2010]?
Answer: NRAS/KRAS (ratio of KD value for NRAS to KD value for KRAS) [1]: A (a compound having 10 or more and less than 20 is denoted as A); HRAS/KRAS (ratio of KD value for HRAS to KD value for KRAS) [2]: B (a compound having 3 or more and less than 10 is denoted as B)

Question: For CCC[C@H]1C(=O)N[C@@H]([C@@H](C)CC)C(=O)N(C)CC(=O)N(C)[C@H]2C/C=C\CCN(C2=O)[C@@H](Cc2ccc(C)cc2)C(=O)N(C)CC(=O)N[C@@H](CCc2ccc(C(F)(F)F)c(Cl)c2)C(=O)N2C[C@H](OCC)C[C@H]2C(=O)NC2(CC(C)(C)C2)C(=O)N(C)[C@@H](C2CCCC2)C(=O)N(C)[C@H](C(=O)N(C)C)CC(=O)N1C [PP1896], which “NRAS/KRAS (ratio of KD value for NRAS to KD value for KRAS)” value [1] is on record?
Answer: A (a compound having 10 or more and less than 20 is denoted as A)

Question: And the “HRAS/KRAS (ratio of KD value for HRAS to KD value for KRAS)” value [2]?
Answer: B (a compound having 3 or more and less than 10 is denoted as B)

Question: How did the “NRAS/KRAS (ratio of KD value with respect to GDP-bound NRAS wild-type protein to KD value with respect to KRAS)” value ([1]; KD ratio NRAS/KRAS) turn out when CCO[C@@H]1C[C@H]2C(=O)NC3(CCC3)C(=O)N(C)[C@@H](C3CCCC3)C(=O)N(C)[C@H](C(=O)N3CCOCC3)CC(=O)N(C)[C@@H](CC3CCCC3)C(=O)N[C@@H]([C@@H](C)CC)C(=O)N(C)CC(=O)N(C)[C@H]3CCCCCN(C3=O)[C@@H](Cc3ccc(C(F)(F)F)cc3)C(=O)N(C)CC(=O)N[C@@H](CCc3cc(F)c(C(F)(F)F)c(F)c3)C(=O)N2C1 [PP0685] was run?
Answer: B (a compound having 3 or more and less than 10 is denoted as B)

Question: And the “HRAS/KRAS (ratio of KD value with respect to GDP-bound HRAS wild-type protein to KD value with respect to KRAS)” value ([2]; KD ratio HRAS/KRAS)?
Answer: B (a compound having 3 or more and less than 10 is denoted as B)

Question: With CC[C@H](C)[C@@H]1NC(=O)[C@H](CC(C)C)N(C)C(=O)C[C@@H](C(=O)N(C)C)N(C)C(=O)[C@H](C2CCCC2)N(C)C(=O)C2(CC(C)(C)C2)NC(=O)[C@@H]2CC(F)(F)CN2C(=O)[C@H](CCc2cc(F)c(C(F)(F)F)c(F)c2)NC(=O)CN(C)C(=O)[C@H](Cc2ccc(C(F)(F)F)cc2)N2CC/C=C\C[C@@H](C2=O)N(C)C(=O)CN(C)C1=O [PP1715] as the molecule, how does the “NRAS/KRAS (ratio of KD value for NRAS to KD value for KRAS)” value [1] read?
Answer: AA (a compound having 20 or more is denoted as AA)

Question: What about the “HRAS/KRAS (ratio of KD value for HRAS to KD value for KRAS)” value [2] of the same molecule?
Answer: A (a compound having 10 or more and less than 20 is denoted as A)

Question: Which results are given for CCCO[C@@H]1C[C@H]2C(=O)NC3(CC(C)(C)C3)C(=O)N(C)[C@@H](C3CCCC3)C(=O)N(C)[C@H](C(=O)N(C)CC)CC(=O)N(C)[C@H]3CCCc4ccc(cc4)C[C@@H](C(=O)N(C)CC(=O)N[C@@H](CCc4ccc(C(F)(F)F)c(OC)c4)C(=O)N2C1)N1CC/C=C\C[C@@H](C1=O)N(C)C(=O)CN(C)C(=O)[C@H]([C@@H](C)CC)NC3=O [PP3083]?
Answer: NRAS/KRAS (ratio of KD value with respect to GDP-bound NRAS wild-type protein to KD value with respect to KRAS) ([1]; KD ratio NRAS/KRAS, GDP-bound wild-type proteins): A (a compound having 10 or more and less than 20 is denoted as A); HRAS/KRAS (ratio of KD value with respect to GDP-bound HRAS wild-type protein to KD value with respect to KRAS) ([2]; KD ratio HRAS/KRAS, GDP-bound wild-type proteins): A (a compound having 10 or more and less than 20 is denoted as A)

Question: CCCN1C(=O)CN(C)C(=O)CN(CC)C(=O)[C@H]([C@@H](C)CC)NC(=O)[C@@H]2CCCCCN2C(=O)C[C@@H](C(=O)N2CCOCC2)N(C)C(=O)[C@H](C2CCCC2)N(C)C(=O)C2(CCCC2)NC(=O)[C@@H]2CCCN2C(=O)[C@H](CCc2ccc(C(F)(F)F)c(Cl)c2)NC(=O)CN(C)C(=O)[C@@H]1Cc1ccc(C(F)(F)F)cc1 [PP0289] ([hPip]I[NEtG][Sar][NPrPhe(4-CF3)][Sar][hPhe(3-Cl-4-CF3)]P[Ac5c][NMeGly(cPent)][NMeD]-Morpholide; lactam N-11) was tested. Which “NRAS/KRAS (ratio of KD for GDP-bound NRAS wild-type to KD for KRAS)” value ([1]; KD ratio NRAS/KRAS) did it give?
Answer: B (a compound having 3 or more and less than 10 is denoted as B)

Question: What about the “HRAS/KRAS (ratio of KD for GDP-bound HRAS wild-type to KD for KRAS)” value ([2]; KD ratio HRAS/KRAS) of the same molecule?
Answer: B (a compound having 3 or more and less than 10 is denoted as B)
